Reference: article PMC4546427, “Stereoselective Regulation of P-gp Activity by Clausenamide Enantiomers in Caco-2, KB/KBv and Brain Microvessel Endothelial Cells” (PLoS ONE, 2015)

Legend:
[1] = set-up: method as in PMID 23684935; settings: cited from earlier work
P-gp [2] = test: Rh123 accumulation summarized over Caco-2, KBv and RBMECs; assay type: cell-based; settings: mean of Caco-2, RBMEC, KBv
Method: Caco-2 cells were seeded onto 6-well plates at a density of 5 × 10^5 cells/well and maintained in MEM supplemented with 10% (v/v) FBS, 1% (v/v) NEAA, 100 units/mL penicillin and 100 μg/mL streptomycin sulphate in a humidified 37°C incubator with 5% CO2. Upon 80%–90% confluence, the cells were provided new complete medium (2 mL/well) and exposed, to vehicle, (−)CLA (1 or 5 μmol/L), (+)CLA (1 or 5 μmol/L), verapamil (200 μmol/L) or individual enantiomer (1 or 5 μmol/L) plus verapamil (200 μmol/L). Then, Rh123 (5 μmol/L) was added to all the wells. After incubation at 37°C and 5% CO2 for 2 h which was designed by the pharmacokinetic parameters of CLA enantiomers, the cells were washed 3 times with 2 mL of ice-cold PBS (pH 7.4), lysed in 400 μL of lysis buffer [50 mmol/L Tris-HCl (pH 8.0), 150 mmol/L NaCl, 0.1% SDS, 100 μg/mL PMSF, 1 μg/mL aprotinin and 1% Nonidet P-40], and then were placed on ice for 40 min. The plates were wrapped in tinfoil. The fluorescence of Rh123 in each well was detected by Spectra Max Gemini XS plate reader (Molecular Devices Corp., Sunnyvale, CA, USA) with excitation and emission wavelengths of 488 nm and 530 nm, respectively. Meanwhile, 10 μL of cell lysates were collected from each well to measure protein concentration using Lowry’s method. Intracellular Rh123 accumulation was normalized by protein concentration (mg/mL) and then was calculated by a standard curve of Rh123 at three concentrations (2.5–10 μmol/L), in parallel with the lysis experiment.
The experimental programs in this part were approved by the Animal Care and Welfare Committee in our institute. Animals were treated in accordance with national/international guidelines. Primary cultures of brain microvessel endothelial cells were prepared from Sprague—Dawley rats (10–12 days old; Beijing Vital River Company, Beijing, China), as previously described by Qian et al.[21]. The gray matter of animals was taken out and minced into small pieces of approximately 1 mm^3 in ice-cold MEM medium, then dissociated by using 2 mg/mL collagenase containing DNase at a final concentration of 10.5 μg/ml on a shaker for 20 min at 37°C. The cells were pelleted by centrifugation(1000 rpm, 10 min, 4°C) and digested once again according to the above protocol. Then 20% dextran(Mr 40,000) was added to the cells for differential centrifugation at 2000 rpm for 10 min. The cells were re-suspended in complete MEM medium and passed through 74-μm stainless steel mesh. […] The P-gp expression in cultured cells was determined by Western blot analyses using a mouse monoclonal antibody raised against amino acids 1040–1280 of P-gp. […]

P-gp [3] = target: T1, P-gp (Homo sapiens, UniProt P08183); test: Rh123 accumulation in non-induced KB cells; assay type: cell-based; settings: CLA 5 μmol/L, Rh123 5 μmol/L
T1 construct: three cells expressing P-gp, Caco-2, KBv and rat brain microvessel endothelial cells (RBMEC); endogenous in cells; host or cells: Caco-2
Method: KB or its vinblastine-resistance derivative KBv cells[19] were maintained on 6-well plates (5 × 10^5 cells/well) in […] medium with 10% FBS, 100 units/mL penicillin and 100 μg/mL streptomycin sulphate at 37°C with 95% air and 5% CO2. After reaching 80%–90% confluence, the two cells were treated with the following agents, respectively: vehicle; (−)CLA (5 or 10 μmol/L); (+)CLA (5 or 10 μmol/L). Additionally, the KBv cells were treated with verapamil (200 μmol/L); or individual enantiomer (5 or 10 μmol/L) plus verapamil (200 μmol/L). Rh123 (5 μmol/L) were finally added to these wells. Subsequently, cell incubation, solubilisation and Rh123 accumulation were performed by using the same method for Caco-2 cells.

CYP3A1 = tested on: CYP3A1; set-up: method as in PMID 23684935, PMID 12692891; settings: rat liver; cited from earlier work

T1 sequence (P08183 whole entry): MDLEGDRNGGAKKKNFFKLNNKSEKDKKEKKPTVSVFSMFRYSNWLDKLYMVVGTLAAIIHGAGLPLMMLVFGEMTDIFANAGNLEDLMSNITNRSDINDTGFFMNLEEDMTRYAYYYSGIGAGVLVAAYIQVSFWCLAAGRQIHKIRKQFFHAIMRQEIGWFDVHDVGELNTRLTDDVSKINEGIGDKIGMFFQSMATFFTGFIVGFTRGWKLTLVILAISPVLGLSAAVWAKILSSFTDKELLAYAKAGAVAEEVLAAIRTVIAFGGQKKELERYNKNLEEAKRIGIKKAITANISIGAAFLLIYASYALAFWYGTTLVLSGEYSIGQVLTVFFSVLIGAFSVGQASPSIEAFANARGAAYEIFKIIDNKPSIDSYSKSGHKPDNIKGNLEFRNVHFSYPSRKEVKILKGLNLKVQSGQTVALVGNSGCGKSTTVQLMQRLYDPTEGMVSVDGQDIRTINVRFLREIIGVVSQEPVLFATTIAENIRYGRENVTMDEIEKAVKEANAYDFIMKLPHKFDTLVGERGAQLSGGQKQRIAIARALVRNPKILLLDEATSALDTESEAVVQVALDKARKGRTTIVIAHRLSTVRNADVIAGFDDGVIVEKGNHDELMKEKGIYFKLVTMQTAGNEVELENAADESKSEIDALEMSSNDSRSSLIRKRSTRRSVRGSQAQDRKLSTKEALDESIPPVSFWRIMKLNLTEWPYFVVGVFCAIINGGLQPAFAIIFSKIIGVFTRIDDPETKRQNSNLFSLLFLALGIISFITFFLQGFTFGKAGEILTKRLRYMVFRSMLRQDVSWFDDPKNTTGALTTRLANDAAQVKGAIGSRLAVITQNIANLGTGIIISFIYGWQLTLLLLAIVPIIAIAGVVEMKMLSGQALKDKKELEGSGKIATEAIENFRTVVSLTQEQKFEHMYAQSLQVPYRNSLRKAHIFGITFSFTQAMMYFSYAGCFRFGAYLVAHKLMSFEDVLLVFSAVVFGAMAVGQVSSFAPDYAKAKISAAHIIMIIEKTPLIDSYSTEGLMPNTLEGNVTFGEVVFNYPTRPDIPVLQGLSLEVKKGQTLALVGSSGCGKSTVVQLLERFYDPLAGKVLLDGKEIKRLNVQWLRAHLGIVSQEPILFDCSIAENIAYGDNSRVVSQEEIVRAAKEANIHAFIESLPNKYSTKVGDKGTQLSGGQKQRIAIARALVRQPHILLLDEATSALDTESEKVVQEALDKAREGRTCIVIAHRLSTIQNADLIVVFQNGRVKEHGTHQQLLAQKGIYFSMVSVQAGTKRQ

Structure (SMILES) | Ratio [(+)/(−)] of cumulative amounts of biliary excretion [1] | Ratio [(+)/(−)] of cumulative amounts of urinary excretion [1] | Percentage of rhodamine 123 accumulation relative to vehicle treatment, Mean±SD, n = 3 (P-gp [2]; high dose) [%] | Percentage of rhodamine 123 accumulation relative to vehicle treatment, Mean±SD, n = 3 (P-gp [2]; low dose) [%] | Decrease of Rh123 accumulation vs. control (P-gp [3]) [%] | Increase of Rh123 accumulation vs. control (P-gp [3]) [%] | Induction of CYP3A1 expression, comparison of enantiomers (CYP3A1)
CN1C(=O)[C@H](O)[C@@H](c2ccccc2)[C@H]1[C@H](O)c1ccccc1 [(+)CLA, 3R,4S,5S,6R-CLA] | 3.49 | 3.81 | 41.28±16.86 | -19.21±7.16 | 28.2 | – | –
CN1C(=O)[C@@H](O)[C@H](c2ccccc2)[C@@H]1[C@@H](O)c1ccccc1 [(−)CLA, 3S, 4R, 5R, 6S-clausenamide] | – | – | 50.48±17.88 | 18.90±10.22 | – | 18.0 | higher expression of CYP3A1 than the (+)-isomer
